The source of these data is ChEMBL document CHEMBL2380203, “Structure-activity relationship of cytochrome bc1 reductase inhibitor broad spectrum antifungal ilicicolin H” (Bioorg Med Chem Lett, 2013).

The structures appear in SMILES notation. Converted amounts (≈) assume the structure as drawn. Where only a bound is given, the exact number is not on record here.

Assay [1] in a line: Inhibition of rat liver NADH:cytochrome bc1 reductase.
Assay [2] can be described thus: Inhibition of Candida albicans MY1055 NADH:cytochrome bc1 reductase.
A short description of assay [3]: Inhibition of Candida albicans MY1055 NADH:cytochrome bc1 reductase in presence of 40% mouse plasma. It is filed as cell-free.
For assay [4], the system named is Candida albicans. The experiment in a line: Antifungal activity against Candida albicans MY1055 assessed as growth inhibition after 24 hrs by liquid microdilution assay in presence of 10% mouse plasma. It is filed as functional. (Broth dilution looks for growth in wells or tubes with falling amounts of substance.)
Assay [5] relates to Candida albicans. The experiment in a line: Ratio of IC50 for Candida albicans MY1055 NADH:cytochrome bc1 reductase in presence of 40% mouse plasma to IC50 for Candida albicans MY1055 NADH:cytochrome bc1 reductase in absence of mouse plasma.
For assay [6], the system named is Candida albicans. The experiment in a line: Ratio of MIC for Candida albicans MY1055 in presence of 10% mouse plasma to MIC for Candida albicans MY1055 in absence of mouse plasma. It is filed as functional.
Assay [7] has as its system Candida albicans. The experiment in a line: Antifungal activity against Candida albicans MY1055 assessed as growth inhibition after 24 hrs by liquid microdilution assay. The class given is functional. As to conditions: MY1055, 24 h.
Assay [8] relates to Candida albicans. In words: Antifungal activity against Candida albicans MY1055 assessed as growth inhibition after 24 hrs by liquid microdilution assay in presence of 10% mouse plasma.
Assay [9] in a line: Selectivity ratio of IC50 for Candida albicans MY1055 NADH:cytochrome bc1 reductase to IC50 for rat liver NADH:cytochrome bc1 reductase.

The term IC50 denotes the concentration at which inhibition is half-maximal. What is called MIC is the lowest concentration that inhibits growth of the organism. Turning to `C/C=C/[C@@H]1[C@H]2C[C@@H](C)CC[C@@H]2C(C)=C[C@H]1C(=O)c1c(O)c(-c2ccc(OC(=O)/C=C/c3cnc[nH]3)cc2)c[nH]c1=O`, the IC50 in assay [1] came out at 8 ng/mL (≈ 0.0144 µM); in [2], 1 ng/mL (≈ 0.00181 µM); in [3] it was 0.15 µg/mL. For the same compound, the figures for the MIC in the assay with Candida albicans [4] and with Candida albicans [7] were 1 µg/mL and 0.031 µg/mL (≈ 0.056 µM), respectively. Also, the Ratio IC50 in the assay with Candida albicans [5] is 43. Also, the Ratio with Candida albicans [6] worked out at 16.

As to `C/C=C/[C@@H]1[C@H]2C[C@@H](C)CC[C@@H]2C(C)=C[C@H]1C(=O)c1c(O)c(-c2ccc(OC(=O)CCCCN)cc2)c[nH]c1=O`, the results for the concentration for half-maximal inhibition (IC50) in assay [1], in [2] and in assay [3] were 40 ng/mL (≈ 0.0751 µM), 0.1 ng/mL (≈ 0.000188 µM) and 0.03 µg/mL, respectively. For the same compound, in the assay with Candida albicans [5], the Ratio IC50 stood at 300. In the assay with Candida albicans [7], the minimal inhibitory concentration (MIC) was found to be 0.031 µg/mL (≈ 0.0582 µM).

Consider `CC1=C[C@@H](C(=O)c2c(O)c(-c3ccc(O)cc3)c[nH]c2=O)[C@H]([C@@H]2OC2C)[C@H]2C[C@@H](C)CC[C@H]12` (stereo not given in full), for which the values for the 50% inhibitory concentration (IC50) in assay [1], in assay [2] and in assay [3] were 1000 ng/mL (≈ 2.22 µM), 5.2 ng/mL (≈ 0.0116 µM) and 1 µg/mL, respectively. For the same compound, the figures for the MIC in the assay on Candida albicans [4], in the assay on Candida albicans [8] and in the assay on Candida albicans [7] were > 1 µg/mL, > 1 µg/mL and 0.625 µg/mL (≈ 1.39 µM), respectively. Further, the Ratio IC50 in the assay on Candida albicans [5] is 192.

As to `C/C=C/[C@@H]1[C@H]2C[C@@H](COC(=O)C3CC3)CC[C@@H]2C(C)=C[C@H]1C(=O)c1c(O)c(-c2ccc(O)cc2)c[nH]c1=O`, the half-maximal inhibitory concentration (IC50) in assay [1] was found to be 40 ng/mL (≈ 0.0773 µM); in [2], 1.2 ng/mL (≈ 0.00232 µM); in assay [3] it was 0.04 µg/mL. The minimum inhibitory concentration (MIC) came out at 0.25 µg/mL in the assay with Candida albicans [4] and 0.0313 µg/mL (≈ 0.0605 µM) in the assay on Candida albicans [7]. Further, in the assay with Candida albicans [5], the Ratio IC50 came out at 20. Besides, the Ratio in the assay with Candida albicans [6] is on record as 8.

On to `C/C=C/[C@@H]1[C@H]2C[C@@H](C)CC[C@@H]2C(C)=C[C@H]1C(=O)c1c(O)c(-c2ccc(O)cc2)c[nH]c1=O` [ILICICOLIN H], for which the IC50 in assay [1] was found to be 2000 ng/mL (≈ 4.61 µM); in [2], 0.5 ng/mL (≈ 0.00115 µM); in [3] it was 0.07 µg/mL. The MIC is > 1 µg/mL in the assay on Candida albicans [4] and 0.02 µg/mL (≈ 0.0461 µM) in the assay with Candida albicans [7]. The Ratio IC50 is > 1000 in assay [9] and 140 with Candida albicans [5]. Also, the Ratio with Candida albicans [6] was >25.

With `C/C=C/[C@@H]1[C@H]2C[C@@H](C)CC[C@@H]2C(C)=C[C@H]1C(=O)c1c(O)c(-c2ccc(OCC(N)=O)cc2)cn(CC(N)=O)c1=O`, the results for the IC50 in assay [1] and in assay [2] were > 1000 ng/mL and 200 ng/mL (≈ 0.365 µM), respectively. In addition, the minimum inhibitory concentration (MIC) in the assay on Candida albicans [7] was > 1 µg/mL.

Consider `C/C=C/[C@@H]1[C@H]2C[C@@H](C)CC[C@@H]2C(C)=C[C@H]1C(=O)c1c(O)c(-c2ccc(OC(=O)C3CCC3)cc2)c[nH]c1=O`, for which the IC50 was > 800 ng/mL in [1] and 2 ng/mL (≈ 0.00388 µM) in assay [2]. Also, the minimal inhibitory concentration (MIC) in the assay on Candida albicans [7] was 0.062 µg/mL (≈ 0.12 µM).

In the case of `C/C=C/[C@@H]1[C@H]2C[C@@H](C)CC[C@@H]2C(C)=C[C@H]1C(=O)c1c(O)c(-c2ccc(OC(=O)CCCN)cc2)c[nH]c1=O`, the concentration for half-maximal inhibition (IC50) in [1] amounted to 45 ng/mL (≈ 0.0868 µM); in assay [2] it was 0.2 ng/mL (≈ 0.000386 µM); in [3], 0.03 µg/mL. Moreover, the Ratio IC50 in the assay with Candida albicans [5] worked out at 150. In the assay with Candida albicans [7], the MIC was found to be 0.031 µg/mL (≈ 0.0598 µM).

In the case of `C/C=C/[C@@H]1[C@H]2C[C@@H](C)CC[C@@H]2C(C)=C[C@H]1C(=O)c1c(O)c(-c2ccc(OC(=O)CCCCNC(=O)OC(C)(C)C)cc2)c[nH]c1=O`, the IC50 is > 1000 ng/mL in assay [1] and 5 ng/mL (≈ 0.0079 µM) in assay [2]. Moreover, in the assay on Candida albicans [7], the minimal inhibitory concentration (MIC) came out at 0.25 µg/mL (≈ 0.395 µM).

Take `C/C=C/[C@@H]1[C@H]2C[C@@H](C)CC[C@@H]2C(C)=C[C@H]1C(=O)c1c(O)c(-c2ccc(O)cc2)cn(CC#N)c1=O`: the IC50 worked out at 800 ng/mL (≈ 1.69 µM) in [1] and 1 ng/mL (≈ 0.00212 µM) in assay [2]. Also, the minimal inhibitory concentration (MIC) in the assay on Candida albicans [7] worked out at 0.062 µg/mL (≈ 0.131 µM).

`C/C=C/[C@@H]1[C@H]2C[C@@H](C)CC[C@@H]2C(C)=C[C@H]1C(=O)c1c(O)c(-c2ccc(O)cc2)cn(CCN(CC)CC)c1=O`: the figures for the 50% inhibitory concentration (IC50) in assay [1], in assay [2] and in assay [3] were > 1000 ng/mL, 20 ng/mL (≈ 0.0375 µM) and 5 µg/mL, respectively. Besides, the MIC with Candida albicans [4] and in the assay with Candida albicans [7] was > 1 µg/mL throughout. The Ratio IC50 in the assay with Candida albicans [5] stood at 250.

Consider `C/C=C/[C@@H]1[C@H]2C[C@@H](C)CC[C@@H]2[C@](C)(Br)[C@H]2Oc3ncc(-c4ccc(O)cc4)c(O)c3C(=O)[C@@H]12`, for which the concentration for half-maximal inhibition (IC50) in [1] is 1000 ng/mL (≈ 1.95 µM); in assay [2], > 1000 ng/mL. Besides, the MIC in the assay with Candida albicans [7] was > 5 µg/mL.

On to `C/C=C/[C@@H]1[C@H]2C[C@@H](COC(=O)C3CC3)CC[C@@H]2C(C)=C[C@H]1C(=O)c1c(O)c(-c2ccc(OC(=O)C3CC3)cc2)c[nH]c1=O`, for which the IC50 was 10 ng/mL (≈ 0.0171 µM) in assay [1] and 0.8 ng/mL (≈ 0.00137 µM) in assay [2]. Moreover, the MIC in the assay on Candida albicans [7] is > 5 µg/mL.

Regarding `C/C=C/[C@@H]1[C@H]2C[C@@H](C)CC[C@@H]2C(C)=C[C@H]1C(=O)c1c(O)c(-c2ccc(OC(=O)C3CC3)cc2)c[nH]c1=O`, the IC50 in assay [1] was > 800 ng/mL; in assay [2], 15 ng/mL (≈ 0.0299 µM). Also, the MIC in the assay with Candida albicans [7] came out at 0.062 µg/mL (≈ 0.124 µM).

`C/C=C/[C@@H]1[C@H]2C[C@@H](CO)CC[C@@H]2C(C)=C[C@H]1C(=O)c1c(O)c(-c2ccc(OC(=O)C3CC3)cc2)c[nH]c1=O`: the concentration for half-maximal inhibition (IC50) in assay [1] was determined as 8 ng/mL (≈ 0.0155 µM); in assay [2], 2 ng/mL (≈ 0.00386 µM). Besides, the minimum inhibitory concentration (MIC) with Candida albicans [7] was found to be 0.25 µg/mL (≈ 0.483 µM).

With `C/C=C/[C@@H]1[C@H]2C[C@@H](CO)CC[C@@H]2C(C)=C[C@H]1C(=O)c1c(O)c(-c2ccc(OC(=O)CC)cc2)c[nH]c1=O`, the IC50 in assay [1] is > 800 ng/mL; in assay [2], 8 ng/mL (≈ 0.0158 µM). Besides, the minimum inhibitory concentration (MIC) in the assay on Candida albicans [7] came out at 0.25 µg/mL (≈ 0.494 µM).

As to `C/C=C/[C@@H]1[C@H]2C[C@@H](C)CC[C@@H]2C(C)=C[C@H]1C(=O)c1c(O)c(-c2ccc(O)cc2)cn(CC(=O)O)c1=O`, the figures for the IC50 in [1] and in assay [2] were 1000 ng/mL (≈ 2.03 µM) and > 1000 ng/mL, respectively. Also, the MIC in the assay on Candida albicans [7] is > 5 µg/mL.

On to `C/C=C/[C@@H]1[C@H]2C[C@@H](COC(C)=O)CC[C@@H]2C(C)=C[C@H]1C(=O)c1c(O)c(-c2ccc(OC(C)=O)cc2)c[nH]c1=O`, for which the IC50 in assay [1] is > 800 ng/mL; in assay [2] it was 15 ng/mL (≈ 0.0281 µM); in assay [3] it was 0.1 µg/mL. The MIC was determined as 1 µg/mL in the assay on Candida albicans [4] and 0.062 µg/mL (≈ 0.116 µM) in the assay with Candida albicans [7]. Moreover, in the assay with Candida albicans [5], the Ratio IC50 was 7. Also, the Ratio with Candida albicans [6] is on record as 8.

Turning to `C/C=C/[C@@H]1[C@H]2C[C@@H](C)CC[C@@H]2C(C)=C[C@H]1C(=O)c1c(O)c(-c2ccc(OCC)cc2)c[nH]c1=O`, the IC50 in assay [1] and in [2] was 1000 ng/mL (≈ 2.17 µM) in each case. For the same compound, the minimum inhibitory concentration (MIC) with Candida albicans [7] was > 5 µg/mL.
